Measured values taken from patent publication US20220008553A1, “ANTI-ERBB2 ANTIBODY-DRUG CONJUGATE AND COMPOSITION THEREOF, PREPARATION METHOD THEREFOR, AND USE THEREOF” (SICHUAN KELUN-BIOTECH BIOPHARMACEUTICAL CO., LTD., priority 2015, published 2022).

How the values were obtained:
[1] = system: breast cancer cell line BT474; conditions: mouse, in vivo
Procedure: (§1) The change of tumor volume and animal weight were measured for calculation of the efficacy (tumor-inhibitory efficacy) of the antibody-drug conjugates in the tumor-bearing mice.
(§2) After gently shaking, the mother solutions were sub-packed and stored at −80° C. Treatment solutions for use were obtained by dilution with normal saline, and a normal saline at the same concentration was used as solvent control.
(§3) The tumor-bearing mice (models obtained in 1.2) with tumor volume of 100-200 mm^3 were randomly assigned (the number of samples in each group was determined according to sample quantity), 7 mice per group. The dosage was 10 ml/kg. The route of administration was single intravenous injection in caudal vein. After administration, the tumor diameter was measured with vernier caliper twice a week for an observation period of 8 weeks, and the tumor volume was calculated according to the following equation: V=0.5 a^2×b, wherein a and b represent the […] of the tumor, respectively. Animal deaths were observed and recorded daily.
(§4) The tumor growth inhibition TGI (%) was calculated with the following equation for evaluating the antitumor efficacy of the antibody-drug conjugates: […]

[2] = system: human gastric cancer cell line NCI-N87; conditions: mouse, in vivo
Procedure: as §1, §2, §3, §4

[3] = system: ovarian cancer cell line SK-OV-3; conditions: mouse, in vivo
Procedure: as §1, §2, §3, §4

[4] = system: BT-474 (HER2+++); conditions: 1 h incubation, FACS
Procedure: (§5) The fluorescent intensity of cell surface binding was measured with FACS to determine the affinity of the drugs to the above cells.

[5] = system: JIMT-1 (HER2+); conditions: 1 h incubation, FACS
Procedure: as §5

[6] = system: MDA-MB-468 (HER2−); conditions: 1 h incubation, FACS
Procedure: as §5

[7] = system: JIMT-1 cells; conditions: 3 mg/kg, single injection via tail vein, 31st day after injection
Procedure: (§6) NOD/SCID mice were subcutaneously inoculated with JIMT-1 cells to establish a subcutaneous xenograft model of human-derived breast cancer. […] Each group has 8 mice, and the administration was a single injection via tail vein. Tumor volume was measured on the 31st day after the single injection (i.e., 43rd day after inoculation of JIMT-1 cells), and TGI was calculated. The efficacy was evaluated based on TGI, and the tolerance was evaluated based on body weight changes and death of the mice. TGI was calculated as described above in (1).

[8] = system: Calu-3 cells; conditions: 1 mg/kg, single injection via tail vein, 31st day after injection
Procedure: as §6, with “BALB/c Nude” for “NOD/SCID”, “Calu-3” for “JIMT-1”, “lung adenocarcinoma.” for “breast cancer.”, “(36th” for “(i.e., 43rd”

[9] = system: BR0438 tumor mass; conditions: 15 mg/kg, single injection via tail vein, 21st day after injection
Procedure: as §6, with “BR0438 tumor mass” for “JIMT-1 cells”, “cancer. The administration was conducted when the average tumor volume reached 173 mm^3.” for “cancer.”, “21st” for “31st”, “injection,” for “injection (i.e., 43rd day after inoculation of JIMT-1 cells),”

[10] = system: GA0006 tumor mass; conditions: 15 mg/kg, single injection via tail vein, 21st day after injection
Procedure: as §6, with “BALB/c nude” for “NOD/SCID”, “GA0006 tumor mass” for “JIMT-1 cells”, “gastric” for “breast”, “cancer. The administration was conducted when the average tumor volume reached 141 mm^3.” for “cancer.”, “21st” for “31st”, “injection,” for “injection (i.e., 43rd day after inoculation of JIMT-1 cells),”

[11] = system: BT-474 cells; conditions: 3 mg/kg, single injection via tail vein, 31st day after injection
Procedure: NOD/SCID mice were orthotopically inoculated with BT-474 cells to establish an orthotopic xenograft model of human-derived breast cancer. […] Each group has 10 mice, and the administration was a single injection via tail vein. Tumor volume was measured on the 31st day after the single injection (i.e., 39th day after inoculation of BT-474 cells), and TGI was calculated. The efficacy was evaluated based on TGI.
wherein VTe: Average tumor volume of treatment group at the end of observation • VTs: Average tumor volume of treatment group at the administration • VCe: Average tumor volume of control group at the end of observation • VCs: Average tumor volume of control group at the administration

With T-DM1 the “TGI (%)” value [1] was 54.80%, the “final tumor volume (mm^3)” value [2] was 774.76 mm^3 and the “TGI (%)” value [3] was −11.04%. The “affinity (EC50)” value [4] was 2.419 µg/mL, the “affinity (EC50)” value [5] was 0.5105 µg/mL and the “affinity (EC50) (ng/ml)” value [6] was “No binding”. For the same substance, the “TGI (%)” value [7] was 28%, the “TGI (%)” value [8] was 64% and the “TGI (%)” value [9] was 3.65%. The “TGI (%)” value [10] was 86.97% and the “TGI (%)” value [11] was 43%.
